Measurements taken from patent publication US20060248793A1, “Method for making fungi compatible artificial snow” (priority 2005, published 2006).

Tests used:
Rhodotorula pilimanae [1] = assay: Fungal inhibition, spot test on lawn (Table 1, FIG. 1-3); format: cell-based; settings: HPLC peak material purified from P. syringae 31R cultures
Protocol: Ten μL quantities of undiluted filtrate (1) and multiple aliquots of 2-fold dilutions of the filtrate (2-9) were applied to potato dextrose agar plates with freshly streaked R. pilimanae. The plate was incubated for 1 day at 28° C. The cleared spots show fungicidal growth inhibition.
Ten μL quantities of undiluted (1) and 2^−1 (2), 2^−2 (3) and 2^−3 (4) dilutions of the extracts were applied to potato dextrose agar plates with freshly streaked R. pilimanae. The plate was incubated for 1 day at 28° C. The cleared spots show fungicidal growth inhibition.
SnoMax® (1 g) was suspended in 5 ml H2O. One ml was mixed with 1 ml of acidified acetone, centrifuged, and the supernatant was recovered. An aliquot (200 μL) of the extract was evaporated to near dryness at 40° C. H2O (100 μL) was added and the mixture evenly suspended. Ten μL each of the SnoMax® suspension, extract, and H2O control were spotted onto a fresh lawn of R. pilimanae on PDA medium and incubated at 28° C. for 24 h.
SnoMax® was obtained from the snow making operation of a local Utah ski resort. One gram was suspended in water and an aliquot was extracted with acidified acetone. The extract was dried, suspended in water, and the solutions were tested for inhibitory activity against R. pilimanae grown as a lawn on potato dextrose agar medium (1) (FIG. 3). This assay is determines syringomycin production.

Rhodotorula pilimanae [2] = assay: Effect of pH on the antifungal activity of Snomax suspensions (FIG. 4); format: cell-based; settings: R. pilimanae lawn, 28° C., 36 hours
Protocol: SnoMax was mixed and suspended with water for 1 hour at room temperature, the pHs were adjusted to 6, 8, or 10 by titrating with dilute solutions of NaOH and HCl, and the suspensions incubated at the final pHs for 1 hour at room temperature. The suspensions were then freeze dried. The freeze dried powders were extracted with acidified acetone, centrifuged, and the supernatant fractions recovered. Acetone was evaporated off at 45° C. and the residues serial diluted (2 fold) in water. Ten microliter aliquots of 2^−1 (a), 2^−2 (b), and 2^−3 (c) dilutions were deposited on a freshly prepared lawn of Rhodotorula pilimanae onto potato-dextrose-casamino acids (PDA-CA) agar medium prepared in Petri dishes. A 10 microliter aliquot of pure syringomycin E (1 mg per ml) was also applied (d). The Petri dishes were incubated at 28° C. for 36 hours. Result: pH 8 and 10 treatments eliminated the antifungal activities of snomax suspension and of syringomycin E, the latter serving as positive control.

Laccaria bicolor = assay: ECM fungal inhibition (Table 1); format: cell-based; design: key: +=fungicidal; settings: unpublished results
Text: (§1) In addition to laboratory studies, ECM fungi that exist in high elevation sites of the Rocky Mountains and that are also culturable in artificial media are studied. These include: Amanita muscaria, Boletus edulis, Hebeloma crustuliniform, Laccaria bicolor, Laccaria laccata, Lactarius deliciosus, Lactarius rufus, Suillus brevipes, Suillus tomentosus, Rhizopogon occidentalis, and Rhizopogon subcaerulescens. Cultures of these fungi are available from the laboratory of Kropp, Utah State University or are obtained from the American Type Culture Collection. Syringomycin-containing extracts from P. syringae 31R and SnoMax® are prepared by methods used for extraction of cyclic lipodepsipeptides (FIG. 2) (1). Briefly, equal volumes of acidified acetone are added to bacterial cultures and SnoMax® suspensions. The mixtures are centrifuged and evaporated to give the aqueous extracts for testing. SnoMax® itself is suspended in water (0.1 g per ml), and the suspension is tested for fungicidal activities.
(§2) For testing, the linear growth of the various ECM fungi in the presence and absence (controls) of extracts and SnoMax® suspensions are analyzed. Sterile agar strips (5 cm×1.5 cm, cut from fresh agar plates and placed in sterile plastic petri dishes) are inoculated at one end with a 5 mm diameter inoculum plug of the ECM fungus to be tested. Paper disks (1 cm diameter) are soaked in filter-sterilized extracts and SnoMax® suspensions and placed at the opposite end of the agar strip. Control strips with disks soaked in sterile distilled water are also be prepared. The concentrations of the extracts to be used are based on the independent determination of the minimal inhibitory concentrations needed to inhibit the in vitro growth of the yeast R. pilimanae. Two levels of 2-fold dilutions above and below this concentration are used. The plates are sealed with Parafilm and incubated at room temperature for several weeks. The extent of linear growth is measured and compared. The ages of the inoculum cultures are standardized and all inoculum disks are taken from the actively growing colony margin. […]

Suillus brevipes = assay: ECM fungal inhibition (Table 1); format: cell-based; design: key: +=fungicidal; settings: unpublished results
Text: as §1, §2

Suillus tomentosus = assay: ECM fungal inhibition (Table 1); format: cell-based; design: key: +=fungicidal; settings: unpublished results
Text: as §1, §2

Rhodotorula pilimanae [3] = tested on: Rhodotorula pilimanae; design: key: +=fungicidal; settings: references 4, 5; cited from earlier work
Saccharomyces cerevisiae = tested on: Saccharomyces cerevisiae; design: key: +=fungicidal; settings: references 3, 5, 8; cited from earlier work
Candida albicans = tested on: Candida albicans; design: key: +=fungicidal; settings: references 3, 8; cited from earlier work
Candida kefyr = tested on: Candida kefyr; design: key: +=fungicidal; settings: cited from earlier work
Candida krusei = tested on: Candida krusei; design: key: +=fungicidal; settings: cited from earlier work
Candida parapsilosis = tested on: Candida parapsilosis; design: key: +=fungicidal; settings: cited from earlier work
Candida rugosa = tested on: Candida rugosa; design: key: +=fungicidal; settings: cited from earlier work
Candida tropicalis = tested on: Candida tropicalis; design: key: +=fungicidal; settings: cited from earlier work
Mucor sp. = tested on: Mucor sp.; design: key: +=fungicidal; settings: cited from earlier work
Microsporium sp. = tested on: Microsporium sp.; design: key: +=fungicidal; settings: cited from earlier work
Trichophyton sp. = tested on: Trichophyton sp.; design: key: +=fungicidal; settings: cited from earlier work
Cryptococcus neoformans = tested on: Cryptococcus neoformans; design: key: +=fungicidal; settings: cited from earlier work
Aspergillus fumigatus = tested on: Aspergillus fumigatus; design: key: +=fungicidal; settings: cited from earlier work
Aspergillus flavus = tested on: Aspergillus flavus; design: key: +=fungicidal; settings: reference 1; cited from earlier work
Aspergillus niger = tested on: Aspergillus niger; design: key: +=fungicidal; settings: cited from earlier work
Fusarium moliniforme = tested on: Fusarium moliniforme; design: key: +=fungicidal; settings: cited from earlier work
Fusarium oxysporum = tested on: Fusarium oxysporum; design: key: +=fungicidal; settings: cited from earlier work
Fusarium solani = tested on: Fusarium solani; design: key: +=fungicidal; settings: cited from earlier work
Penicillium expansum = tested on: Penicillium expansum; design: key: +=fungicidal; settings: cited from earlier work
Penicillium digitatum = tested on: Penicillium digitatum; design: key: +=fungicidal; settings: cited from earlier work
Penicillium radulatum = tested on: Penicillium radulatum; design: key: +=fungicidal; settings: cited from earlier work
Penicillium raistrikii = tested on: Penicillium raistrikii; design: key: +=fungicidal; settings: cited from earlier work
Geotricum candidum = tested on: Geotricum candidum; design: key: +=fungicidal; settings: references 2, 6, 7, 8; cited from earlier work
Geotricum citri-aurantii = tested on: Geotricum citri-aurantii; design: key: +=fungicidal; settings: cited from earlier work
Verticillium dahliae = tested on: Verticillium dahliae; design: key: +=fungicidal; settings: cited from earlier work
Botrytis cinera = tested on: Botrytis cinera; design: key: +=fungicidal; settings: cited from earlier work
Ceratocystis fimbriata = tested on: Ceratocystis fimbriata; design: key: +=fungicidal; settings: cited from earlier work
Ustilago maydis = tested on: Ustilago maydis; design: key: +=fungicidal; settings: cited from earlier work
Thielaviopsis basicola = tested on: Thielaviopsis basicola; design: key: +=fungicidal; settings: cited from earlier work
Phytophthora infestans = tested on: Phytophthora infestans; design: key: +=fungicidal; settings: cited from earlier work
Trichoderma atroviridae = tested on: Trichoderma atroviridae; design: key: +=fungicidal; settings: cited from earlier work
Rhizoctonia solani = tested on: Rhizoctonia solani; design: key: +=fungicidal; settings: cited from earlier work
Alternaria alternate = tested on: Alternaria alternate; design: key: +=fungicidal; settings: cited from earlier work
Aureobasidium pullulans = tested on: Aureobasidium pullulans; design: key: +=fungicidal; settings: cited from earlier work
Cladosporium herbarum = tested on: Cladosporium herbarum; design: key: +=fungicidal; settings: cited from earlier work
Rhizopus sp. = tested on: Rhizopus sp.; design: key: +=fungicidal; settings: cited from earlier work

## syringomycin E
Rhodotorula pilimanae [1]
  growth inhibitory activity against R. pilimanae, other yeasts and filamentous fungi: growth inhibitory activity
Rhodotorula pilimanae [2]; pH 8, 1 hour at room temperature
  antifungal activity after pH treatment: eliminated
Rhodotorula pilimanae [2]; pH 10, 1 hour at room temperature
  antifungal activity after pH treatment: eliminated

## syringomycin [SR]
Laccaria bicolor
  Fungal species inhibited: +
Suillus brevipes
  Fungal species inhibited: +
Suillus tomentosus
  Fungal species inhibited: +
Rhodotorula pilimanae [3]
  Fungal species inhibited: ^c+
Saccharomyces cerevisiae
  Fungal species inhibited: +
Candida albicans
  Fungal species inhibited: +
Candida kefyr
  Fungal species inhibited: +
Candida krusei
  Fungal species inhibited: +
Candida parapsilosis
  Fungal species inhibited: +
Candida rugosa
  Fungal species inhibited: +
Candida tropicalis
  Fungal species inhibited: +
Mucor sp.
  Fungal species inhibited: +
Microsporium sp.
  Fungal species inhibited: +
Trichophyton sp.
  Fungal species inhibited: +
Cryptococcus neoformans
  Fungal species inhibited: +
Aspergillus fumigatus
  Fungal species inhibited: +
Aspergillus flavus
  Fungal species inhibited: +
Aspergillus niger
  Fungal species inhibited: +
Fusarium moliniforme
  Fungal species inhibited: +
Fusarium oxysporum
  Fungal species inhibited: +
Fusarium solani
  Fungal species inhibited: +
Penicillium expansum
  Fungal species inhibited: +
Penicillium digitatum
  Fungal species inhibited: +
Penicillium radulatum
  Fungal species inhibited: +
Penicillium raistrikii
  Fungal species inhibited: +
Geotricum candidum
  Fungal species inhibited: +
Geotricum citri-aurantii
  Fungal species inhibited: +
Verticillium dahliae
  Fungal species inhibited: +
Botrytis cinera
  Fungal species inhibited: +
Ceratocystis fimbriata
  Fungal species inhibited: +
Ustilago maydis
  Fungal species inhibited: +
Thielaviopsis basicola
  Fungal species inhibited: +
Phytophthora infestans
  Fungal species inhibited: +
Trichoderma atroviridae
  Fungal species inhibited: +
Rhizoctonia solani
  Fungal species inhibited: +
Alternaria alternate
  Fungal species inhibited: +
Aureobasidium pullulans
  Fungal species inhibited: +
Cladosporium herbarum
  Fungal species inhibited: +
Rhizopus sp.
  Fungal species inhibited: +
